In patent US20080318842A1, “Cyclic Isodityrosine Derivatives” (priority 2004, published 2008):
Converted amounts (≈) assume the structure as drawn. Read-outs that look alike come from different tables or passages of the source.

What was measured:
[1] = system: MRSA K24 strain; experiment: Imipenem activity-potentiating effect, paper-disc method on plate containing imipenem; format: cell-based, methicillin-resistant Staphylococcus aureus; conditions: for MRSA (mm) [10 μg/6 mm disc]: diameter of inhibition circle, 10 μg agent per 6 mm paper disc, plate with imipenem 10 μg/mL, 37° C., 20 hours
Procedure: In this example, clinically isolated MRSA K24 strain was used as an assay strain. A plate for control was prepared by adding 1.5% of agar (manufactured by Shimizu Shokuhin Kaisha, Ltd.) to Mueller-Hinton Broth (manufactured by DIFCO Laboratories), and a plate for assay was prepared by adding imipenem (trade name: Tienam for intramuscular injection, titer: 0.5, manufactured by Banyu Pharmaceutical Co., Ltd.) to the above composition so that the final concentration of imipenem was 10 μg/mL. These plates were used as assay plates. An inoculum solution was prepared by culturing the assay strain in Mueller-Hinton Broth for one night, and diluting the culture solution with the same culture medium so as to have a concentration of 0.5 McFarland units (about 10^8 cfu/mL). This inoculum solution was applied on each of the plates with a sterile cotton swab in accordance with the National Committee For Clinical Laboratory Standards (NCCLS) method. The antibacterial activities against the assay strain in the plates were evaluated by a paper-disc method as follows. Paper discs with a diameter of 6 mm impregnated with 10 μg of assay medical agents (eurypamides A, A′, B, and D, and Compounds (1) to (12)) were placed on each of the plates, and the plates were cultured at 37° C. for 20 hours.
On the plate for control, the assay strain was grown under the paper discs. […] In addition, the assay strain could be grown on the plate for assay. […] If the compound impregnated in the paper disc acts in combination with imipenem to exert anti-MRSA activity, growth of the assay strain would not be observed under and around the paper disc. Therefore, in this example, the imipenem activity-potentiating effect for MRSA is represented by a diameter of an inhibition circle (the diameter passing through the center of the paper disc) on the assay plates.

[2] = system: mouse peritoneal macrophages; experiment: Inhibition of production of cholesteryl ester from [14C] oleic acid in mouse peritoneal macrophages; format: cell-based; conditions: for IC50: Peritoneal macrophage
Procedure: Production of a cholesteryl ester in mouse peritoneal macrophages was performed by partly modifying the method by Nishikawa et al (Nishikawa et al., the Journal of Biological Chemistry (JBC) 265, pp. 5226-5231, 1990). Mouse peritoneal macrophages were prepared from an ICR female mouse as follows. First, cells were isolated from the mouse peritoneal cavity using a Hank's balanced salt solution (HBSS) and then suspended in a GIT medium so as to have a concentration of 2×10^6 cells/mL. Subsequently, 0.25 mL of the suspension was placed in each of 48 wells on a plastic culture plate, and the plate was cultured in the presence of 5% CO2 at 37° C. for two hours. In order to remove non-adhesive cells, each well was then washed with 0.25 mL of an HBSS three times. Finally, 0.25 mL of a culture medium A (Dulbecco's modified Eagle's medium (DMEM) containing 100 u/mL of penicillin, 100 μg/mL of streptomycin, and an 8% lipoprotein-free serum) was added thereto.
The effect of inhibiting the synthesis of a cholesteryl ester of the agents (eurypamides A, A′, B, and D, and Compounds (1) to (12)) in the macrophages thus prepared was evaluated as follows: The amount of [^14C] cholesteryl ester and [^14C] triacylglycerol synthesized from [^14C] oleic acid was measured as follows, and a concentration of the agent at which the synthesis was inhibited by 50% (IC50: μg/mL) was determined.
First, the macrophages (5×10^5 cells/0.25 mL/well) were cultured in a plastic culture plate with 48 wells. Subsequently, 5 μL of [^14C] oleic acid (1 nmol, 0.05 μCi, which was dissolved in a phosphate buffered saline (PBS) containing 10% ethanol), liposome (having a composition of phosphatidylcholine/phosphatidylserine/diacetylphosphate/cholesterol=10/10/2/5 (nmol) in 10 μL of 0.3 M glucose), and 2.5 μL of each agent dissolved in methanol were added to each well. The plate was cultured for 14 hours, and the culture medium was then removed. Each of the wells was washed with a PBS three times. Subsequently, 0.25 mL of a PBS containing 0.1% (w/v) sodium dodecyl sulfate (SDS) was added to each well to lyse the cells. Lipid in the cells was extracted by the method by Bligh & Dyer (Bligh & Dyer, Can. J. Biochem. Physiol., 37, pp. 911-917, 1959). The volume of the organic solvent was reduced by centrifugation in vacuum. The solution was spotted on a thin-layer chromatography (TLC) plate (silica gel […], thickness: 0.5 mm, manufactured by Merck Ltd.) and developed with hexane/diethyl ether/acetic acid (70/30/1, v/v). The amounts of separated [^14C] cholesteryl oleate and [^14C] triacylglycerol were analyzed with a bioimage analyzer (BAS2000 manufactured by FUJIFILM Corporation).

[3] = Mus musculus, 14 h, read-out: Macrophage [IC50 μg/mL]
[4] = Mus musculus, read-out: IC50 of inhibiting the production of cholesteryl oleate
[5] = Mus musculus, synthesis of [14C] cholesteryl ester from [14C] oleic acid, 14 hours culture, read-out: Macrophage [IC50 μg/mL]
[6] = mouse peritoneal macrophages, read-out: IC50 of inhibiting the production of cholesteryl oleate
[7] = synthesis of [14C] cholesteryl ester from [14C] oleic acid, 14 hours culture

COC(=O)C1Cc2cc(Br)c(c(Br)c2)Oc2cc(cc(I)c2O)C[C@H](NC(=O)OCc2ccccc2)C(=O)N[C@@H]([C@H](C)OCc2ccccc2)C(=O)N1 (some centres unmarked) [Compound (1), N-Cbz-Thr(O-benzyl)-dibromo-iodo-eurypamide B methyl ester]
MRSA (mm) [10 μg/6 mm disc] [1]: 8 mm
imipenem activity-potentiating effect (anti-MRSA activity in combination with imipenem), in words [1]: potentiate
IC50 [2, 3]: 3 µg/mL (≈ 3.11 µM)
IC50 [2, 4]: 3 µg/mL (≈ 3.11 µM)
effect of inhibiting the synthesis of a cholesteryl ester in macrophages, in words [2]: have an effect of inhibiting the synthesis of a cholesteryl ester in macrophages

COC(=O)C1Cc2cc(Br)c(c(Br)c2)Oc2cc(cc(I)c2O)C[C@H](NC(=O)OC(C)(C)C)C(=O)N[C@@H]([C@H](C)OCc2ccccc2)C(=O)N1 (some centres unmarked) [Compound (2), N-Boc-Thr(O-benzyl)-dibromo-iodo-eurypamide B methyl ester]
MRSA (mm) [10 μg/6 mm disc] [1]: 8 mm
imipenem activity-potentiating effect (anti-MRSA activity in combination with imipenem), in words [1]: potentiate
IC50 [2, 3]: 3 µg/mL (≈ 3.22 µM)
IC50 [2, 4]: 3 µg/mL (≈ 3.22 µM)
effect of inhibiting the synthesis of a cholesteryl ester in macrophages, in words [2]: have an effect of inhibiting the synthesis of a cholesteryl ester in macrophages

C[C@@H](O)[C@@H]1NC(=O)[C@@H](NC(=O)OC(C)(C)C)Cc2cc(I)c(O)c(c2)Oc2c(Br)cc(cc2Br)CC(C(=O)O)NC1=O (some centres unmarked) [Compound (3), N-Boc-dibromo-iodo-eurypamide B]
MRSA (mm) [10 μg/6 mm disc] [1]: 10 mm
imipenem activity-potentiating effect (anti-MRSA activity in combination with imipenem), in words [1]: potentiate
IC50 [2, 3]: > 10 µg/mL

COC(=O)C1Cc2cc(Br)c(c(Br)c2)Oc2cc(cc(I)c2O)C[C@H](N)C(=O)N[C@@H]([C@@H](C)O)C(=O)N1 (some centres unmarked) [Compound (4), dibromo-iodo-eurypamide B methyl ester]
MRSA (mm) [10 μg/6 mm disc] [1]: 8 mm
imipenem activity-potentiating effect (anti-MRSA activity in combination with imipenem), in words [1]: potentiate
IC50 [2, 5]: > 10 µg/mL

COC(=O)[C@@H]1Cc2cc(Br)c(c(Br)c2)Oc2cc(cc(I)c2O)C[C@H](N)C(=O)N[C@@H](C(C)OCc2ccccc2)C(=O)N1 (some centres unmarked) [Compound (5), Thr(O-benzyl)-dibromo-iodo-eurypamide B methyl ester]
MRSA (mm) [10 μg/6 mm disc] [1]: 8 mm
imipenem activity-potentiating effect (anti-MRSA activity in combination with imipenem), in words [1]: potentiate
IC50 [2, 5]: > 10 µg/mL

COC(=O)[C@@H]1Cc2cc(Br)c(c(Br)c2)Oc2cc(cc(I)c2O)C[C@H](NC(=O)OCC2c3ccccc3-c3ccccc32)C(=O)N[C@@H](C(C)OCc2ccccc2)C(=O)N1 (some centres unmarked) [Compound (6)]
imipenem activity-potentiating effect (anti-MRSA activity in combination with imipenem), in words [1]: do not potentiate
IC50 [2, 5]: 0.32 µg/mL (≈ 0.304 µM)
IC50 [2, 6]: 0.32 µg/mL (≈ 0.304 µM)
effect of inhibiting the synthesis of a cholesteryl ester in macrophages, in words [2]: have an effect of inhibiting the synthesis of a cholesteryl ester in macrophages

COC(=O)[C@@H]1Cc2cc(Br)c(c(Br)c2)Oc2cc(cc(I)c2O)C[C@H](NC(=O)CCCCCNC(=O)OC(C)(C)C)C(=O)N[C@@H](C(C)OCc2ccccc2)C(=O)N1 (some centres unmarked) [Compound (7)]
imipenem activity-potentiating effect (anti-MRSA activity in combination with imipenem), in words [1]: do not potentiate
IC50 [2, 5]: 4.2 µg/mL (≈ 4.02 µM)
IC50 [2, 6]: 4.2 µg/mL (≈ 4.02 µM)
effect of inhibiting the synthesis of a cholesteryl ester in macrophages, in words [2]: have an effect of inhibiting the synthesis of a cholesteryl ester in macrophages

COC(=O)[C@@H]1Cc2cc(Br)c(c(Br)c2)Oc2cc(cc(I)c2O)C[C@H](NC(=O)C(Cc2ccccc2)NC(=O)OC(C)(C)C)C(=O)N[C@@H](C(C)OCc2ccccc2)C(=O)N1 (some centres unmarked) [Compound (8)]
imipenem activity-potentiating effect (anti-MRSA activity in combination with imipenem), in words [1]: do not potentiate
IC50 [2, 5]: 5 µg/mL (≈ 4.64 µM)
IC50 [2, 6]: 5 µg/mL (≈ 4.64 µM)
effect of inhibiting the synthesis of a cholesteryl ester in macrophages, in words [2]: have an effect of inhibiting the synthesis of a cholesteryl ester in macrophages

CC(OCc1ccccc1)[C@@H]1NC(=O)[C@@H](NC(=O)OC(C)(C)C)Cc2cc(I)c(O)c(c2)Oc2c(Br)cc(cc2Br)C[C@@H](C(=O)O)NC1=O (some centres unmarked) [Compound (9)]
MRSA (mm) [10 μg/6 mm disc] [1]: 17 mm
imipenem activity-potentiating effect (anti-MRSA activity in combination with imipenem), in words [1]: potentiate
IC50 [2, 3]: > 10 µg/mL

CC(OCc1ccccc1)[C@@H]1NC(=O)[C@@H](N)Cc2cc(I)c(O)c(c2)Oc2c(Br)cc(cc2Br)C[C@@H](C(=O)O)NC1=O (some centres unmarked) [Compound (11)]
MRSA (mm) [10 μg/6 mm disc] [1]: 12 mm
imipenem activity-potentiating effect (anti-MRSA activity in combination with imipenem), in words [1]: potentiate
IC50 [2, 5]: > 10 µg/mL

COC(=O)[C@@H]1Cc2cc(Br)c(c(Br)c2)Oc2cc(cc(I)c2O)C[C@H](NC(=O)OC(C)(C)C)C(=O)N[C@@H](C(C)O)C(=O)N1 (some centres unmarked) [Compound (12), N-Boc-dibromo-iodo-eurypamide B methyl ester]
MRSA (mm) [10 μg/6 mm disc] [1]: 9 mm
imipenem activity-potentiating effect (anti-MRSA activity in combination with imipenem), in words [1]: potentiate
IC50 [2, 3]: > 10 µg/mL

C[C@@H](O)[C@@H]1NC(=O)[C@@H](N)Cc2ccc(O)c(c2)Oc2ccc(cc2)C[C@@H](C(=O)O)NC1=O [Eurypamide B, reference compound]
Macrophage [IC50 μg/mL] [2, 7]: — (The symbol “-” in the column of macrophage in Table 1 means that the compound did not exhibit inhibition in its amount of 10 μg/mL)

Eurypamide A [reference compound]
Macrophage [IC50 μg/mL] [2, 7]: — (The symbol “-” in the column of macrophage in Table 1 means that the compound did not exhibit inhibition in its amount of 10 μg/mL)

Eurypamide A′ [reference compound]
Macrophage [IC50 μg/mL] [2, 7]: — (The symbol “-” in the column of macrophage in Table 1 means that the compound did not exhibit inhibition in its amount of 10 μg/mL)

Eurypamide D [reference compound]
Macrophage [IC50 μg/mL] [2, 7]: — (The symbol “-” in the column of macrophage in Table 1 means that the compound did not exhibit inhibition in its amount of 10 μg/mL)
